Measured values published in patent publication US12410163B2, “Compounds as GLP-IR agonists” (Terns Pharmaceuticals, Inc., priority 2022, dated 2025).

Tests used:
[1] = Metabolic stability in hepatocytes; format: in vitro ADME; conditions: cryopreserved human hepatocytes (suspension), 1×10^6 cells/mL; for half-life at 1 μM: 0-240 min, read-out: hHep t1/2; for CLint scaled at 1 μM: intrinsic clearance, read-out: hHep CLint
Procedure: Test compounds are incubated in human hepatocytes and stability is assessed from the substrate […] approach. Test compounds are dissolved in dimethyl sulfoxide (DMSO) to create a 10 mM Stock, and then further diluted to create a 1000× Working Stock of 1 mM with DMSO in 96-well plates for test compounds and the positive control (midazolam). Vials containing cryopreserved hepatocytes are removed from the liquid nitrogen tank and immediately immersed in a 37° C. water bath. The vials are shaken gently until the contents had thawed and were then immediately emptied into 48 mL of pre-warmed HT Medium in a 50 mL conical tube. Cells remaining in the vial are resuspended with 1.0 mL of pre-warmed HT Medium and added to the conical tube. The tube is capped and then gently inverted several times to resuspend the hepatocytes. The cell suspension is centrifuged at 50×g at room temperature for 5 minutes and the supernatant discarded. The cell pellet is loosened by gently swirling the centrifuge tube and is re-suspended in 4 mL of warm Dulbecco's Modified Eagle medium (DMEM). Cell density is determined by a cell counter by Nexcelom, and DMEM medium is added to obtain a target density of 1×10^6 cells/mL. The assay is carried out in 96-well microtiter plates. Test Compounds are incubated at 1 μM with 1×10^6 cells/mL hepatocytes in DMEM for 0, 30, 60, 120 and 240 minutes. The incubation is carried out with gentle shaking at 37° C. under a humid atmosphere of 95% air/5% CO2. The volume of the incubation mixture is 37 μL with a final 0.1% DMSO. At each of the time points, the incubation is stopped by adding 150 μL quenching solution (100% acetonitrile, 0.1% formic acid containing bucetin as an internal standard for positive ESI mode). Subsequently, the mixtures are vortexed for 20 min and centrifuged at 4,000 RPM at 10° C. The supernatant (80 μL) is transferred to a clean 96-well plate and analyzed by LC-MS/MS. Midazolam at 1 μM with a final 0.1% DMSO is included as a positive control to verify assay performance. The percent parent remaining, intrinsic and predicted hepatic clearance and t1/2 are calculated. All samples are analyzed by LC-MS/MS using an AB Sciex API 4000 instrument, coupled to a Shimadzu LC-20AD LC Pump system. Separation is achieved using a Waters Atlantis T3 dC18 reverse phase HPLC column (20 mm×2.1 mm) at a flow rate of 0.5 mL/min. The mobile phase consisted of 0.1% formic acid in water (solvent A) and 0.1% formic acid in 100% acetonitrile (solvent B). Elution conditions are detailed below.
The ion optics of each test compound are optimized for their declustering potential (DP), […] (CE), collision-cell exit potential (CXP) and used in a selected ion monitoring experiment in the positive ion mode. The peak area ratio of each test compound to internal standard is then evaluated for stability. The extent of metabolism is calculated based on the disappearance of the test compound, compared to its initial concentration. The initial rates of clearance of the test compound are calculated using the linear regression plot of semi-log % remaining of the compound versus time. The elimination rate constant (k) of the linear regression plot is then used to determine t1/2 and the intrinsic clearance (CLint) using the following formula, where Chepatocyte (million cells/mL) is the cell density of the incubation: k=−slope t1/2=0.693/k CLint=k/Chepatocyte
Test compounds were incubated in human hepatocytes and stability was assessed from the substrate […] approach. Test compounds were dissolved in dimethyl sulfoxide (DMSO) to create a 10 mM Stock, and then further diluted to create a 1000× Working Stock of 1 mM with DMSO in 96-well plates for test compounds and the positive control (midazolam). Vials containing cryopreserved hepatocytes were removed from the liquid nitrogen tank and immediately immersed in a 37° C. water bath. […]

[2] = Rat pharmacokinetics; format: in vivo; conditions: male Sprague-Dawley rats, plasma, route not stated in table (IV or oral gavage 10 mL/kg of 0.3 or 0.6 mg/mL)

| SMILES | half-life at 1 μM [1] [h] | CLint scaled at 1 μM [1] [mL/min/kg] | Cmax [2] [ng/mL] |
| --- | --- | --- | --- |
| N#Cc1ccc(COc2cccc(N3CCN(Cc4nc5ccc(C(=O)O)cc5n4Cc4cncs4)[C@@H]4C[C@@H]43)n2)c(F)c1 (single isomer, unassigned) [Compound 1, 2-((5-(6-((4-cyano-2-fluorobenzyl)oxy)pyridin-2-yl)-2,5-diazabicyclo[4.1.0]heptan-2-yl)methyl)-1-(thiazol-5-ylmethyl)-1H-benzo[d]imidazole-6-carboxylic Acid] | 3.36 | 11.9 | 34.7 ± 13.7 |
| N#Cc1ccc(COc2cccc(N3CCN(Cc4nc5ccc(C(=O)O)cc5n4Cc4cncs4)[C@H]4C[C@H]43)n2)c(F)c1 (single isomer, unassigned) [Compound 2, 2-((5-(6-((4-Cyano-2-fluorobenzyl)oxy)pyridin-2-yl)-2,5-diazabicyclo[4.1.0]heptan-2-yl)methyl)-1-(thiazol-5-ylmethyl)-1H-benzo[d]imidazole-6-carboxylic Acid] |  | 5.01 | 44.1 ± 6.5 |
| N#Cc1ccc(COc2cccc([C@H]3CCN(Cc4nc5ccc(C(=O)O)cc5n4Cc4cncs4)[C@@H]4C[C@H]34)n2)c(F)c1 (single isomer, unassigned) [Compound 4, 2-((5-(6-((4-Cyano-2-fluorobenzyl)oxy)pyridin-2-yl)-2-azabicyclo[4.1.0]heptan-2-yl)methyl)-1-(thiazol-5-ylmethyl)-1H-benzo[d]imidazole-6-carboxylic Acid] | 2.87 | 14 | 70 ± 32 |
| N#Cc1ccc(COc2cccc([C@@H]3CCN(Cc4nc5ccc(C(=O)O)cc5n4Cc4cncs4)[C@@H]4C[C@@H]43)n2)c(F)c1 (single isomer, unassigned) [Compound 5, 2-((5-(6-((4-Cyano-2-fluorobenzyl)oxy)pyridin-2-yl)-2-azabicyclo[4.1.0]heptan-2-yl)methyl)-1-(thiazol-5-ylmethyl)-1H-benzo[d]imidazole-6-carboxylic Acid] | 5.37 | 7.46 | 282 ± 4.04 |
| N#Cc1ccc(COc2cccc([C@H]3CCN(Cc4nc5ccc(C(=O)O)cc5n4Cc4cncs4)[C@H]4C[C@@H]34)n2)c(F)c1 (single isomer, unassigned) [Compound 14, 2-((5-(6-((4-Cyano-2-fluorobenzyl)oxy)pyridin-2-yl)-2-azabicyclo[4.1.0]heptan-2-yl)methyl)-1-(thiazol-5-ylmethyl)-1H-benzo[d]imidazole-6-carboxylic Acid] | 5.1 | 7.86 | 59.3 ± 5.68 |
| N#Cc1ccc(COc2cccc([C@@H]3CCN(Cc4nc5ccc(C(=O)O)cc5n4Cc4cncs4)[C@H]4C[C@@H]34)n2)c(F)c1 (single isomer, unassigned) [Compound 15, 2-((5-(6-((4-Cyano-2-fluorobenzyl)oxy)pyridin-2-yl)-2-azabicyclo[4.1.0]heptan-2-yl)methyl)-1-(thiazol-5-ylmethyl)-1H-benzo[d]imidazole-6-carboxylic Acid] | 4.33 | 9.24 | 77.4 ± 16.2 |
| CC1(c2ccc(C#N)cc2F)Oc2cccc(C3CCN(Cc4nc5ccc(C(=O)O)cc5n4Cc4cncs4)CC3)c2O1 (centres unmarked) [Compound 18] | 0.23 | 17.5 | 89.5 ± 23.6 |

The remaining lines, values ahead:

| half-life at 1 μM [1] [h] | CLint scaled at 1 μM [1] [mL/min/kg] | Cmax [2] [ng/mL] | SMILES |
| --- | --- | --- | --- |
| 5.65 | 7.09 | 64.5 ± 17.8 | N#Cc1ccc(COc2cccc(N3CCN(Cc4nc5ccc(C(=O)O)cc5n4C[C@@H]4CCO4)[C@@H]4C[C@@H]43)n2)c(F)c1 (single isomer, unassigned) [Compound 43] |
| 6.27 | 6.4 | 15.5 ± 7.15 | N#Cc1ccc(COc2ccnc(N3CCN(Cc4nc5ccc(C(=O)O)cc5n4Cc4cncs4)[C@@H]4C[C@@H]43)n2)c(F)c1 [Compound 20, 2-((5-(4-((4-Cyano-2-fluorobenzyl)oxy)pyrimidin-2-yl)-2,5-diazabicyclo[4.1.0]heptan-2-yl)methyl)-1-(thiazol-5-ylmethyl)-1H-benzo[d]imidazole-6-carboxylic Acid] |
| 6.85 | 5.86 | 28.3 ± 6.42 | CC1(c2ccc(C#N)cc2F)Oc2cccc(N3CCN(Cc4nc5ccc(C(=O)O)cc5n4CC4(C#N)CC4)C4CC43)c2O1 (centres unmarked) [Compound 40, 2-((5-(2-(4-Cyano-2-fluorophenyl)-2-methylbenzo[d][1,3]dioxol-4-yl)-2,5-diazabicyclo[4.1.0]heptan-2-yl)methyl)-1-((1-cyanocyclopropyl)methyl)-1H-benzo[d]imidazole-6-carboxylic Acid] |
| 6.2 | 6.46 | 9.62 | CCn1nncc1Cn1c(CN2CCN(c3cccc(OCc4ccc(C#N)cc4F)n3)[C@H]3C[C@H]32)nc2ccc(C(=O)O)cc21 [Compound 45, 2-((5-(6-((4-Cyano-2-fluorobenzyl)oxy)pyridin-2-yl)-2,5-diazabicyclo[4.1.0]heptan-2-yl)methyl)-1-((1-ethyl-1H-1,2,3-triazol-5-yl)methyl)-1H-benzo[d]imidazole-6-carboxylic Acid] |
